Experimental data taken from article PMC5674511, “Increase of enzyme activity through specific covalent modification with fragments” (Chemical Science, 2017).

Legend:
BtGH84 [1] = molecular target: T1, BtGH84 (Bacteroides thetaiotaomicron, UniProt Q89ZI2); assay: binding constant; method not stated in main text; details: read-out: BtGH84 / None
T1 construct: gene BT_4395; recombinant purified enzyme
T1 sequence (Q89ZI2 22-737): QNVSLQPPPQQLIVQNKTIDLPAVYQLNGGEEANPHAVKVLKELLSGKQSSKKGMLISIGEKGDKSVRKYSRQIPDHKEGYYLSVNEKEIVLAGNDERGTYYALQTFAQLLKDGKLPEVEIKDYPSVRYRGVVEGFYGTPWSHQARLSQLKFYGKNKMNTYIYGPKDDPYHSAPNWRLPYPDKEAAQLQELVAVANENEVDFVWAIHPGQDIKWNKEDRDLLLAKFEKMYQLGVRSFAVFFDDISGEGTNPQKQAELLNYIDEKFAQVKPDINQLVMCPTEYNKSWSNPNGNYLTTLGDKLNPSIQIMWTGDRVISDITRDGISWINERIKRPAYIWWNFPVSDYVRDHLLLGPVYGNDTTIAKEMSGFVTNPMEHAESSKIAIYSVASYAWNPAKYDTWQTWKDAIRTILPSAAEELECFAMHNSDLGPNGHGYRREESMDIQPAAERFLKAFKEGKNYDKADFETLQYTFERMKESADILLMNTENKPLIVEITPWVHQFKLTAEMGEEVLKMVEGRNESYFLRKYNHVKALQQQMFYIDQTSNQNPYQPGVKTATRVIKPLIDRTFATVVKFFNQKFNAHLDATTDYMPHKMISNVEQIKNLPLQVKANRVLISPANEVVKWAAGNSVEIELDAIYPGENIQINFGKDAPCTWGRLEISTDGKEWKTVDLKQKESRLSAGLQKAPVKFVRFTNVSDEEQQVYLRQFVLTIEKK
Source text: (§1) binding constant; method not stated in main text on BtGH84

BtGH84 [2] = molecular target: T2, BtGH84 (Bacteroides thetaiotaomicron, UniProt Q89ZI2, C441S/C675S/Y571C); assay: binding constant; method not stated in main text; details: read-out: BtGH84_TM / None
T2 construct: gene BT_4395; recombinant purified enzyme
T2 sequence (Q89ZI2 22-737 C441S/Y571C/C675S): T1 sequence (Q89ZI2 22-737)
Source text: as §1

## CCNC1=N[C@@H]2[C@@H](O)[C@H](O)[C@@H](CO)O[C@@H]2S1 [compound 2, thiamet-G]
BtGH84 [1]
  Kd: 50 nM
BtGH84 [2]
  Kd: 52 ± 5.7 nM
